# Assay results published in patent US20200352947A1, “USE OF SEROTONERGIC DRUGS TO TREAT VIRUS-INDUCED THROMBOCYTOPENIA” (NATIONAL UNIVERSITY OF SINGAPORE, priority 2017, published 2020).
# Assays:
# DENV2-infected mice = assay: Platelet aggregation in peripheral blood smears of DENV2-infected WT mice; assay type: in vivo; conditions: 10^6 pfu DENV2 IP, ketanserin 8 mg/kg IP 1 hour after infection, blood 24 hours post-infection, vs vehicle 1% DMSO
# Description: Images depict peripheral blood smears from DENV2-infected mice. Mice were infected via intraperitoneal route (IP) with 10^6 pfu. (A) Mock infected mice. (B) DENV-infected mice treated with vehicle control IP. (C) DENV-infected mice given ketanserin 8 mg/kg IP. Blood was taken via cheek bleed 24 hours post-infection, smeared onto glass slides, stained with eosin and methylene blue and viewed under light microscopy using a 100× magnification lens. Dengue induces platelet aggregation, while administration of ketanserin prevents this. A few individual platelets are indicated by arrows; platelet aggregates are circled by dashed lines. Scale bar=10 μm.
# To test whether ketanserin could block platelet aggregation and/or prevent thrombocytopenia, a mouse model of dengue infection was used. WT mice were infected via intraperitoneal route (IP) with 10^6 pfu of DENV2 and, after 1 hour, treated with vehicle (1% DMSO) or ketanserin (8 mg/kg) IP. Blood was taken via cheek bleed 24 hours post-infection, smeared onto glass slides, stained with eosin and methylene blue and viewed under light microscopy using a 100× magnification lens. […] Selected red blood cells (RBC), platelets (arrows) and platelet aggregates (dashed lines) are labeled.
# [1] = system: DENV2-infected IFNαβγ-KO mice; assay: Platelet counts in DENV2-infected mice deficient in interferon signalling; assay type: in vivo; conditions: 10^6 pfu DENV2 IP, ketanserin 8 mg/kg IP once daily, 24 and 72 hours post-infection, n=5
# Description: Platelet counts of DENV2 infected mice. Mice deficient in interferon signalling (IFNαβγ-KO) were infected via intraperitoneal route (IP) with 10^6 plaque forming units (pfu) and were given either vehicle (1% DMSO) or ketanserin 8 mg/kg […]. Blood was taken via cheek bleed 24 and 72 hours post-infection and platelet counts were measured using an automated hematology analyzer. DENV2 infection induced thrombocytopenia, but ketanserin treatment was able to prevent thrombocytopenia (n=5). Mean values are presented and error bars represent the SEM. P values were determined by Student's unpaired t test; ****P<0.0001.
# These mice are commonly used in the study of DENV as their deficiency in interferon signaling results in sustained DENV replication [St John, A. L., et al., eLife 2, e00481 (2013)]. IFNαβγ-KO mice were infected via the intraperitoneal route (IP) with 10^6 plaque forming units (pfu) of DENV2 and were given either vehicle (1% DMSO) or ketanserin (8 mg/kg) IP once daily thereafter. Blood was taken via cheek bleed 24 and 72 hours post-infection and platelet counts were measured using an automated hematology analyzer.
smiles,measurement,setting,value
"O=C(c1ccc(F)cc1)C1CCN(CCn2c(=O)[nH]c3ccccc3c2=O)CC1 [ketanserin, 3-[2-[4-(4-fluorobenzoyl)piperidin-1-yl]ethyl]-1H-quinazoline-2,4-dione]",DENV-induced platelet aggregation in peripheral blood smears,DENV2-infected mice,prevented
same,platelet counts (DENV2-induced thrombocytopenia),[1],able to maintain the initial normal platelet count
